# Laboratory results taken from US20150065693A1, “COMPOSITION FOR PROPHYLAXIS OR TREATMENT OF VASCULAR OR CARDIAC VALVULAR CALCIFICATION COMPRISING DIPEPTIDYL PEPTIDASE-4 INHIBITOR” (THE ASAN FOUNDATION, priority 2013, published 2015).
# Tests used:
# [1] = system: CD26/DPP-4 mRNA; experiment: CD26/DPP-4 mRNA expression by RT-PCR in vascular smooth muscle cells; assay type: cell-based, mice; conditions: extent in proportion to the concentration of DETA-NO, FIG. 4
# [2] = system: calcification of the cardioaorta; experiment: In vivo calcium deposition in the cardioaorta by Osteosense fluorescence; conditions: control and eNOS KO transgenic mice, FIG. 11
# Procedure: To determine whether the calcification of the cardioaorta decreased by the CD26 inhibitor, a CD26 inhibitor drug, DPPIV inhibitor sitagliptin, was administered to the control and the eNOS KO transgenic mice. Thereafter, the intensity of fluorescence was monitored by injecting Osteosense into the mice to check the in vivo calcium deposition. In FIG. 11, the red intensity of fluorescence represents a level of calcification.
# [3] = system: vascular smooth muscle cells from the eNOS KO mice; experiment: Osteogenic differentiation of vascular smooth muscle cells (ALP, AR, VK staining); assay type: cell-based; conditions: FIG. 10B
# Procedure: The aorta extracted with the heart was washed with a serum-free M199 medium (Cellgro), and cut into small pieces. Thereafter, 20% fetal calf serum, and 3 mg/mL collagenase (Sigma) were added to the M199 medium, and […] for 3 hours in a 37° C. water bath. Then, it was confirmed that the separated cells were vascular smooth muscle cells using an α-SM actin monoclonal antibody (Sigma). The separated vascular smooth muscle cells were divided at a 30% concentration, and the medium used was replaced with osteogenic medium (Osteogenic Basal Medium, Osteogenic SingleQuots, Lonza, USA) after 24 hours. The medium was replaced every 3 days, and the cell culture was performed for 28 days. The concentration of sCD26/DPP-4 was measured upon medium replacement.
# For the wild-type mice and eNOS KO mice, it was determined whether the promotion of ossification of vascular smooth muscle cells was induced by CD26 using an ALP staining method as a staining method used at the initial calcification stage, an AR staining method as a staining method used at the middle calcification stage, and a VK staining method as a staining method used at the late calcification stage.
# Also, the vascular smooth muscle cells from the eNOS KO mice were treated with CD26 and a CD26 inhibitor, diprotin A, respectively.
compound,measurement,setting,value
NCCN(CCN)/[N+]([O-])=N/O [DETA-NO],expression of the CD26/DPP-4 mRNA,[1],decreased
N[C@@H](CC(=O)N1CCn2c(nnc2C(F)(F)F)C1)Cc1cc(F)c(F)cc1F [sitagliptin],calcification in the cardioaorta,[2],slowly proceeded
diprotin A,osteogenic differentiation,[3],inhibited
